Laboratory results: patent US7989451B2, “Tricyclic 1,2,4-triazine oxides and compositions for therapeutic use in cancer treatments” (Auckland Uniservices Limited, priority 2005, dated 2011)
Like-named read-outs stand apart in the source and are kept apart here.

Legend:
[1] = tested on: human cervical carcinoma SiHa; assay: Proliferation assay (IC50) under aerobic and hypoxic conditions, SiHa; format: cell-based; conditions: for IC50: Homo sapiens, 4 h drug exposure, sulforhodamine B; for HCR: hypoxic cytotoxicity ratio = IC50 aerobic/IC50 hypoxic
Experimental: (§1) Compounds representative of the invention were evaluated under both aerobic and hypoxic conditions in a proliferation assay (IC50), using two cell lines: human colon carcinoma HT29, and human cervical carcinoma SiHa (Table 1).
(§2) Drug exposures were performed in 96-well plates (Nunc) either using a 37 DC humidified incubator (20% O2, 5% CO2) or in the incubator compartment (37° C.) of an anaerobic chamber (Shell Lab) where palladium catalyst scrubbed gas (90% N2, 5% H2, 5% CO2) ensures severe anoxia (<0.001% O2). For each experiment, compounds were simultaneously tested under both oxic and hypoxic conditions and included TPZ as an internal control. An 8-methyl-5-nitroquinoline derivative, SN 24349, known to require very low oxygen concentrations for bioactivation (Siim et al., Br. J. Cancer 1994, 70, 596-603) was used to confirm that strict hypoxia was present during the experiment. […] Cell cultures were grown in αMEM (Gibco) containing 5% heat inactivated FCS and maintained in exponential growth phase. For each individual experiment an appropriate number of cells were seeded (HT29=1100; SiHa=1500) into wells in αMEM+10% FCS+10 mM added glucose+100 μM 2′-deoxycytidine (2′dCyd), and allowed to attach for 2-3 h. High glucose (final concentration 17 mM) and the presence of 2′-dCyd minimize hypoxia-induced cell cycle arrest. Cultures were then exposed to drugs, using 3-fold serial dilutions in duplicate, for a further 4 h. Subsequently cells were washed free of compound using complete media (without glucose/2′-dCyd) and allowed to grow for 5 (oxic) or 6 (anoxic) days. Plates were stained with sulforhodamine B as described previously (Wilson et al., J. Med. Chem. 1989, 32, 31-38) and IC50 values determined.
(§3) HCR=Hypoxic cytotoxicity ratio is defined as the ratio of IC50 values under aerobic and hypoxic conditions (IC50 aerobic/IC50 hypoxic).

[2] = tested on: human colon carcinoma HT29; assay: Proliferation assay (IC50) under aerobic and hypoxic conditions, HT29; format: cell-based; conditions: for IC50: Homo sapiens, 4 h drug exposure, sulforhodamine B; for HCR: hypoxic cytotoxicity ratio = IC50 aerobic/IC50 hypoxic
Experimental: as §1, §2, §3

[3] = hypoxic (anaerobic chamber, <0.001% O2), then 6 days growth, read-out: IC50 (μM) hypoxic
[4] = oxic (20% O2), then 5 days growth, read-out: IC50 (μM) oxic
[5] = HT-29, hypoxic (anaerobic chamber, <0.001% O2), then 6 days growth, read-out: IC50 (μM) hypoxic
[6] = HT-29, oxic (20% O2), then 5 days growth, read-out: IC50 (μM) oxic

| SMILES | IC50 [1, 3] | IC50 [1, 4] | IC50 [2, 5] | IC50 [2, 6] | melting point | HCR [1] | HCR [2] |
| --- | --- | --- | --- | --- | --- | --- | --- |
| CC1Cc2cc3c(cc2C1)[n+]([O-])c(NCCCN1CCOCC1)n[n+]3[O-] (stereo not shown) [Compound 99, 7-Methyl-N-[3-(4-morpholinyl)propyl]-7,8-dihydro-6H-indeno[5,6-e][1,2,4]triazin-3-amine 1,4-Dioxide] | 8.4 ± 3.2 µM | 415 ± 133 µM | 19 ± 6 µM | 459 ± 93 µM | 161 to 163 °C | 50 ± 3 | 25 ± 2 |
| COCCCN(C)CCNc1n[n+]([O-])c2cc3c(cc2[n+]1[O-])CCC3 [Compound 33, N^1-(1,4-Dioxido-7,8-dihydro-6H-indeno[5,6-e][1,2,4]triazin-3-yl)-N^2-(3-methoxypropyl)-N^2-methyl-1,2-ethanediamine] | 2 ± 1.1 µM | 152 ± 38 µM | 6.3 ± 2.1 µM | 315 ± 84 µM | 129 to 131 °C | 92 ± 30 | 52 ± 4 |
| CCc1n[n+]([O-])c2cc3c(cc2[n+]1[O-])CC(CN1CCOCC1)C3 (stereo not shown) [Compound 144, 3-Ethyl-7-(4-morpholinylmethyl)-7,8-dihydro-6H-indeno[5,6-e][1,2,4]triazine 1,4-Dioxide] | 2.4 ± 0.1 µM | 147 ± 37 µM | 4.8 ± 1.3 µM | 154 ± 51 µM | 164 to 165 °C | 62 ± 19 | 31 ± 2 |
| CCc1n[n+]([O-])c2cc3c(cc2[n+]1[O-])CC(CCO)C3 (stereo not shown) [Compound 162, 2(3-Ethyl-1,4-dioxido-7,8-dihydro-6H-indeno[5,6-e][1,2,4]triazin-7-yl)ethanol] | 2.9 ± 0.4 µM | 283 µM | 7.7 ± 1.2 µM | 717 ± 320 µM | 152 to 155 °C | 86 | 102 ± 57 |
| [O-][n+]1nc(NCCN2CCCCC2)[n+]([O-])c2cc3c(cc21)CCC3 [Compound 37, N-[2-(1-Piperidinyl)ethyl]-7,8-dihydro-6H-indeno[5,6-e][1,2,4]triazin-3-amine 1,4-Dioxide] | 1.3 ± 0.4 µM | 101 ± 25 µM | 5.8 ± 2.9 µM | 186 ± 58 µM | 165 to 168 °C | 143 | 49 ± 35 |
| [O-][n+]1nc(NCCCN2CCOCC2)[n+]([O-])c2cc3c(cc21)CCC3 [Compound 61, N-[3-(4-Morpholinyl)propyl]-7,8-dihydro-6H-indeno[5,6-e][1,2,4]triazin-3-amine 1,4-Dioxide] | 8.8 ± 1.7 µM | 357 ± 35 µM | 21 ± 8 µM | 385 ± 14 µM | 158 to 160 °C | 44 ± 12 | 20 ± 5 |
| [O-][n+]1nc(NCCN2CCCCC2)[n+]([O-])c2ccc3c(c21)CCC3 [Compound 13, N-[2-(1-Piperidinyl)ethyl]-8,9-dihydro-7H-indeno[5,4-e][1,2,4]triazin-3-amine 1,4-Dioxide] | 1 ± 0.1 µM | 52 ± 8 µM | 4.9 ± 0.6 µM | 251 ± 24 µM | 138 to 141 °C | 51 ± 1 | 53 ± 11 |
| CC1Cc2cc3c(cc2C1)[n+]([O-])c(CCCN1CCOCC1)n[n+]3[O-] (stereo not shown) [Compound 104, 7-Methyl-3-[3-(4-morpholinyl)propyl]-7,8-dihydro-6H-indeno[5,6-e][1,2,4]triazine 1,4-Dioxide] | 1.7 ± 0.2 µM | 226 ± 14 µM | 2.9 ± 0.1 µM | 210 ± 38 µM | 119 to 121 °C | 134 ± 4 | 72 ± 13 |
| COC1CCN(CCCNc2n[n+]([O-])c3cc4c(cc3[n+]2[O-])CCC4)CC1 [Compound 59, N-[3-(4-Methoxy-1-piperidinyl)propyl]-7,8-dihydro-6H-indeno[5,6-e][1,2,4]triazin-3-amine 1,4-Dioxide] | 2 ± 0.2 µM | 114 ± 2 µM | 7.1 ± 0.8 µM | 494 ± 36 µM | 128 to 130 °C | 57 ± 1 | 70 ± 5 |
| [O-][n+]1nc(CCCN2CCOCC2)[n+]([O-])c2cc3c(cc21)CC(CO)C3 (stereo not shown) [Compound 141, {3-[3-(4-Morpholinyl)propyl]-1,4-dioxido-7,8-dihydro-6H-indeno[5,6-e][1,2,4]triazin-7-yl}methanol] | 1.8 ± 0.2 µM | 377 µM | 2.4 ± 0.1 µM | 294 ± 34 µM | 112 to 114 °C | 206 | 121 ± 14 |
| Nc1n[n+]([O-])c2cc3c(cc2[n+]1[O-])CCC3 [Compound 20, 7,8-Dihydro-6H-indeno[5,6-e][1,2,4]triazin-3-amine 1,4-Dioxide] | 8.3 ± 0.4 µM | 253 ± 30 µM | 15 ± 6 µM | 387 ± 108 µM | 190 to 195 °C | 31 ± 5 | 27 ± 2 |
| CCCN(CCC)CCNc1nc2ccc3c(c2[n+]([O-])n1)CCC3 [Compound 11, N^1-(1-Oxido-8,9-dihydro-7H-indeno[5,4-e][1,2,4]triazin-3-yl)-N^2,N^2-dipropyl-1,2-ethanediamine] | 3.3 ± 0.3 µM | 74 ± 27 µM | 12.4 µM | 99 ± 9 µM | 133 to 135 °C | 23 ± 10 | 7 |

Further lines, with some results ahead:

| IC50 [1, 3] | IC50 [1, 4] | IC50 [2, 5] | IC50 [2, 6] | melting point | SMILES | HCR [1] | HCR [2] |
| --- | --- | --- | --- | --- | --- | --- | --- |
| 3.4 ± 0.7 µM | 376 ± 10 µM | 9.6 ± 3.6 µM | 708 ± 178 µM | 187 to 190 °C | CCN(CC)CCNc1n[n+]([O-])c2cc3c(cc2[n+]1[O-])OCC3 [Compound 210, N^1-(1,4-Dioxido-7,8-dihydrofuro[2,3-g][1,2,4]benzotriazin-3-yl)-N^2,N^2-diethyl-1,2-ethanediamine] | 122 ± 25 | 113 ± 53 |
| 0.31 µM | 25 ± 6 µM | 1.5 µM | 38 ± 10 µM | 152 to 154 °C | CN(C)CCNc1n[n+]([O-])c2cc3c(cc2[n+]1[O-])CCCO3 [Compound 242, N^1-(1,4-Dioxido-7,8-dihydro-6H-chromeno[6,7-e][1,2,4]triazin-3-yl)-N^2,N^2-dimethyl-1,2-ethanediamine] | 60 | 19 |
| 1.1 ± 0.5 µM | 111 ± 51 µM | 2.6 ± 0.03 µM | 154 ± 19 µM | 120 to 124 °C | CCNc1n[n+]([O-])c2cc3c(cc2[n+]1[O-])CN(C)CC3 [Compound 259, N-Ethyl-7-methyl-6,7,8,9-tetrahydro[1,2,4]triazino[6,5-g]isoquinolin-3-amine 1,4-Dioxide] | 100 ± 2 | 59 ± 7 |
| 3.4 ± 0.8 µM | 90 ± 24 µM | 22 ± 4.2 µM | 177 ± 80 µM | 145 to 148 °C | [O-][n+]1nc(NCCCN2CCOCC2)[n+]([O-])c2cc3c(cc21)OCC3 [Compound 200, N-[3-(4-Morpholinyl)propyl]-6,7-dihydrofuro[3,2-g][1,2,4]benzotriazin-3-amine 1,4-Dioxide] | 28 ± 6 | 8 ± 3 |
| 29.4 ± 4.2 µM | 355 ± 240 µM | 48.6 ± 12.2 µM | 225 ± 136 µM | 186 to 189 °C | [O-][n+]1nc(NCCCN2CCOCC2)[n+]([O-])c2cc3c(cc21)CCO3 [Compound 212, N-[3-(4-Morpholinyl)propyl]-7,8-dihydrofuro[2,3-g][1,2,4]benzotriazin-3-amine 1,4-Dioxide] | 14 ± 10 | 6 ± 4 |
| 23 µM | > 500 µM | 117 µM | 495 µM | > 300 °C (dec.) | Nc1n[n+]([O-])c2cc3c(cc2[n+]1[O-])OCC3 [Compound 205, 7,8-Dihydrofuro[2,3-g][1,2,4]benzotriazin-3-amine 1,4-Dioxide] | – | 4 |
| 4.7 ± 3.3 µM | 304 ± 254 µM | 13 ± 7 µM | 471 ± 443 µM | 175 to 179 °C | CN(C)CCNc1n[n+]([O-])c2cc3c(cc2[n+]1[O-])OCO3 [Compound 224, N^1-(1,4-Dioxido[1,3]dioxolo[4,5-g][1,2,4]benzotriazin-3-yl)-N^2,N^2-dimethyl-1,2-ethanediamine] | 53 ± 17 | 26 ± 21 |
| 0.3 ± 0.02 µM | 36 ± 10 µM | 2.4 ± 0.1 µM | 61 ± 6 µM | 149 to 151 °C | CN(C)CCNc1n[n+]([O-])c2cc3c(cc2[n+]1[O-])CCO3 [Compound 198, N^1-(1,4-Dioxido-6,7-dihydrofuro[3,2-g][1,2,4]benzotriazin-3-yl)-N^2,N^2-dimethyl-1,2-ethanediamine] | 87 ± 9 | 23 ± 0.2 |
